Literature values as cited in patent US10550186B2, “Cancer therapy targeting intercellular adhesion molecule 4 (ICAM4)” (Beth Israel Deaconess Medical Center, Inc., priority 2014, dated 2020).

Details: more cytotoxic than the comparators

COc1cc2cc(c1Cl)N(C)C(=O)C[C@H](OC(=O)[C@H](C)N(C)C(C)=O)[C@]1(C)O[C@H]1[C@H](C)[C@@H]1C[C@@](O)(NC(=O)O1)[C@H](OC)/C=C/C=C(\C)C2 [Maytansine]
cytotoxicity relative to doxorubicin, methotrexate and vinca alkyloid: 100- to 1000 fold
